Measurements taken from ChEMBL document CHEMBL5131564, “Discovery of Potent and Selective Receptor-Interacting Serine/Threonine Protein Kinase 2 (RIPK2) Inhibitors for the Treatment of Inflammatory Bowel Diseases (IBDs)” (J Med Chem, 2022).
Calls of active or inactive are those of the source. The rule behind the calls is not given here.

Experiments:
[1] = Volume of distribution in Balb/C mouse at 10 mg/kg, po measured upto 48 hrs by LC-MS/MS analysis; format: ADME, organism-based; settings: in vivo
[2] = Clearance in Balb/C mouse plasma at 10 mg/kg, iv measured upto 48 hrs by LC-MS/MS analysis; format: ADME, organism-based
[3] = biological target: Serine/threonine-protein kinase SIK1 (Homo sapiens, UniProt P57059); experiment: Inhibition of human SIK by kinase assay
Serine/threonine-protein kinase SIK1, sequence (P57059 whole entry): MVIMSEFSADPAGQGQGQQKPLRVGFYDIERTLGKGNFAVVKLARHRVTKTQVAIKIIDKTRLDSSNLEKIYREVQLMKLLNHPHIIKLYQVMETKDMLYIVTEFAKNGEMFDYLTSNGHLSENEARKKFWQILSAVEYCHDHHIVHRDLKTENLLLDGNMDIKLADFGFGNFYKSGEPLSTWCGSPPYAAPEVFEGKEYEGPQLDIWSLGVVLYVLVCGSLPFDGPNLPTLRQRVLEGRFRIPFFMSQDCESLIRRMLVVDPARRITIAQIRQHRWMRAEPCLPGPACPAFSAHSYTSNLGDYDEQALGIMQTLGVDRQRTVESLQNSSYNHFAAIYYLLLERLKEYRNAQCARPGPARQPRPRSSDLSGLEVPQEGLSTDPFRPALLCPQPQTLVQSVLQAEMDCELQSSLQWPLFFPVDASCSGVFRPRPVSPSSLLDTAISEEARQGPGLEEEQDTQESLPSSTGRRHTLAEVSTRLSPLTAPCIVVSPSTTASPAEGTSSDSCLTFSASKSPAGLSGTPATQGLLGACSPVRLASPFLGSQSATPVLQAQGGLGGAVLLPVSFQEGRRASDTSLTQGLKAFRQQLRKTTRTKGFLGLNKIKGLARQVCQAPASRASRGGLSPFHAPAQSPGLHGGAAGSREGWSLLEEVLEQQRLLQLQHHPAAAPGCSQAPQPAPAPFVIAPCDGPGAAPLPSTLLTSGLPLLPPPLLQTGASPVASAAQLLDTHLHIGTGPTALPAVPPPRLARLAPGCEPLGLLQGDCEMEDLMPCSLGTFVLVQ

[4] = Elimination half life in Balb/C mouse at 10 mg/kg, po measured upto 48 hrs by LC-MS/MS analysis; format: ADME, organism-based; settings: in vivo, read-out: beta t1/2 (converted)
[5] = Volume of distribution in Balb/C mouse at 10 mg/kg, iv measured upto 48 hrs by LC-MS/MS analysis; format: ADME, organism-based; settings: in vivo
[6] = biological target: T1, Receptor-interacting serine/threonine-protein kinase 4 (Homo sapiens, UniProt P57078); experiment: Binding affinity to human RIPK4
T1 sequence (P57078 whole entry): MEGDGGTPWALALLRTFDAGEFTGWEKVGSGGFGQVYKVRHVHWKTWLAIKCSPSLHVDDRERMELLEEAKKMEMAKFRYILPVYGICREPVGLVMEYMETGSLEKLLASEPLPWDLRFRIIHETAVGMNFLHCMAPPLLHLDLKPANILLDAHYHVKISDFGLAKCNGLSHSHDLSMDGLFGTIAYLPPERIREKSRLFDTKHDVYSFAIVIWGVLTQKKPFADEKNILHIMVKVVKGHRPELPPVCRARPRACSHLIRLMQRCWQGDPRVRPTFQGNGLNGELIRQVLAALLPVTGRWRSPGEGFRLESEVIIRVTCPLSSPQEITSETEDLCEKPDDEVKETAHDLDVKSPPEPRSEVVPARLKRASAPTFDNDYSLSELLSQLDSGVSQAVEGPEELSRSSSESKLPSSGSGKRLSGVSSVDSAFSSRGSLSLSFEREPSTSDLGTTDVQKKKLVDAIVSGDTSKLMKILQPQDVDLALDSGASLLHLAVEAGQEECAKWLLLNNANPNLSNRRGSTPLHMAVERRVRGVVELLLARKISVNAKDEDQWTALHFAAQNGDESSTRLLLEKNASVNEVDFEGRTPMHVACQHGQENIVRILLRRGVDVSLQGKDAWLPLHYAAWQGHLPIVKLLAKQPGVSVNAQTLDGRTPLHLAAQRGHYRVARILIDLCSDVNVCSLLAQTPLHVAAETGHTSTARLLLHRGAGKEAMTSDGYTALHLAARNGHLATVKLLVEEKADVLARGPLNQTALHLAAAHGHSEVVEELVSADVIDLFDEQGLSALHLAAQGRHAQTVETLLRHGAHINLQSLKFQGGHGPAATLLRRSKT

[7] = Metabolic stability in human liver microsomes assessed as half life at 1 uM by LC/MS/MS analysis; format: ADME, Microsome
RAW264.7 = experiment: Inhibition of MDP-stimulated TNFalpha production in mouse RAW264.7 cells assessed as TNFalpha mRNA level upto 50 nM incubated for 22 hrs by real-time PCR analysis; format: functional, cell-based
[8] = biological target: T2, Receptor-type tyrosine-protein kinase FLT3 (Homo sapiens, UniProt P36888); experiment: Inhibition of human FLT3 by kinase assay
T2 sequence (P36888 whole entry): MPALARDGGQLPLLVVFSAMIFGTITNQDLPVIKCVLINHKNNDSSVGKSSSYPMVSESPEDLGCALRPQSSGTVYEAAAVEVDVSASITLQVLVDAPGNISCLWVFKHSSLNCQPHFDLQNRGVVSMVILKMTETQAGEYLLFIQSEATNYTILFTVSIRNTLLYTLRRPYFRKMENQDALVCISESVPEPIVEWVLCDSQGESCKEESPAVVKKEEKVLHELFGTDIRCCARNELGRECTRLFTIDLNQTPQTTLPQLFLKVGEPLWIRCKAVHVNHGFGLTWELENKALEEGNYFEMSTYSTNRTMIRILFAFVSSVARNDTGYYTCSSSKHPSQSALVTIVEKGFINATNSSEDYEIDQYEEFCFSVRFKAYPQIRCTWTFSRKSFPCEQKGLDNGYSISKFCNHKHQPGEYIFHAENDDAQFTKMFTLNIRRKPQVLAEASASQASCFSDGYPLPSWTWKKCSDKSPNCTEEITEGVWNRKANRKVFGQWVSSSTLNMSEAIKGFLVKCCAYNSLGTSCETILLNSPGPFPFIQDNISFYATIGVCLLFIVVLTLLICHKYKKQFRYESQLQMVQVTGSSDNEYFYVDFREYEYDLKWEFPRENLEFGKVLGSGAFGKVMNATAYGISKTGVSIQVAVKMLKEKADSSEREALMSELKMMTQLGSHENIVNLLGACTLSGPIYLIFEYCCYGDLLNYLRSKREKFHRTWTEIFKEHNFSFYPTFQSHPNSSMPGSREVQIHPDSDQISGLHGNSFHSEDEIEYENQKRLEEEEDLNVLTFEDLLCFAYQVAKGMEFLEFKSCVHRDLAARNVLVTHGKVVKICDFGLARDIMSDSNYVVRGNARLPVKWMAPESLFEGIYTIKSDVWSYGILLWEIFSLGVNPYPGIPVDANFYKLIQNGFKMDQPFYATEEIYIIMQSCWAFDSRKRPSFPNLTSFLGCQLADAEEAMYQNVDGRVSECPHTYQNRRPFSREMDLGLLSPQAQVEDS

[9] = AUC (0 to t) in Balb/C mouse at 10 mg/kg, iv measured upto 48 hrs by LC-MS/MS analysis; format: ADME, organism-based; parameters: time < 48 hrs, dose 10 mg/kg, route iv; settings: in vivo
[10] = biological target: Proto-oncogene tyrosine-protein kinase Src (Homo sapiens, UniProt P12931); experiment: Inhibition of human c-SRC by kinase assay
Proto-oncogene tyrosine-protein kinase Src, sequence (P12931 2-536 limits assumed): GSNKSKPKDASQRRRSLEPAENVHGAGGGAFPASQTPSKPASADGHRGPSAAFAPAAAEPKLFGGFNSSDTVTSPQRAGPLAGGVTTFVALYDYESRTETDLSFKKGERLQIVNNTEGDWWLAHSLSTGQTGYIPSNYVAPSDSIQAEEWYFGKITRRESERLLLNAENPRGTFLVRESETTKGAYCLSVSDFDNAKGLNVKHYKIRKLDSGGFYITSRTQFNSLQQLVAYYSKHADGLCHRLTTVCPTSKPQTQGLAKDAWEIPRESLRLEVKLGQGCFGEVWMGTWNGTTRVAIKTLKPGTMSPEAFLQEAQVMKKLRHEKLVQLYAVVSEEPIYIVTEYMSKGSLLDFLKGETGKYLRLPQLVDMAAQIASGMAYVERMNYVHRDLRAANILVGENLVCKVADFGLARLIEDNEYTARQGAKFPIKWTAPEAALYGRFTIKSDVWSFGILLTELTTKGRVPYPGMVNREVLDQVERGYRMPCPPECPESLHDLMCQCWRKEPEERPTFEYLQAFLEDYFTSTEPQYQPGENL

[11] = Drug uptake in DSS-induced acute ulcerative colitis C57BL/6 mouse model assessed as drug concentration in colon at 20 mg/kg, po after 0.5 hrs; format: ADME, organism-based; settings: read-out: Drug uptake
[12] = Inhibition of LPS/MDP-stimulated TNFalpha production in C57BL/6J mouse BMDM cells by ELISA relative to control; format: functional, cell-based
[13] = biological target: Mast/stem cell growth factor receptor Kit (Homo sapiens, UniProt P10721); experiment: Inhibition of human KIT by kinase assay
Mast/stem cell growth factor receptor Kit, sequence (P10721 whole entry): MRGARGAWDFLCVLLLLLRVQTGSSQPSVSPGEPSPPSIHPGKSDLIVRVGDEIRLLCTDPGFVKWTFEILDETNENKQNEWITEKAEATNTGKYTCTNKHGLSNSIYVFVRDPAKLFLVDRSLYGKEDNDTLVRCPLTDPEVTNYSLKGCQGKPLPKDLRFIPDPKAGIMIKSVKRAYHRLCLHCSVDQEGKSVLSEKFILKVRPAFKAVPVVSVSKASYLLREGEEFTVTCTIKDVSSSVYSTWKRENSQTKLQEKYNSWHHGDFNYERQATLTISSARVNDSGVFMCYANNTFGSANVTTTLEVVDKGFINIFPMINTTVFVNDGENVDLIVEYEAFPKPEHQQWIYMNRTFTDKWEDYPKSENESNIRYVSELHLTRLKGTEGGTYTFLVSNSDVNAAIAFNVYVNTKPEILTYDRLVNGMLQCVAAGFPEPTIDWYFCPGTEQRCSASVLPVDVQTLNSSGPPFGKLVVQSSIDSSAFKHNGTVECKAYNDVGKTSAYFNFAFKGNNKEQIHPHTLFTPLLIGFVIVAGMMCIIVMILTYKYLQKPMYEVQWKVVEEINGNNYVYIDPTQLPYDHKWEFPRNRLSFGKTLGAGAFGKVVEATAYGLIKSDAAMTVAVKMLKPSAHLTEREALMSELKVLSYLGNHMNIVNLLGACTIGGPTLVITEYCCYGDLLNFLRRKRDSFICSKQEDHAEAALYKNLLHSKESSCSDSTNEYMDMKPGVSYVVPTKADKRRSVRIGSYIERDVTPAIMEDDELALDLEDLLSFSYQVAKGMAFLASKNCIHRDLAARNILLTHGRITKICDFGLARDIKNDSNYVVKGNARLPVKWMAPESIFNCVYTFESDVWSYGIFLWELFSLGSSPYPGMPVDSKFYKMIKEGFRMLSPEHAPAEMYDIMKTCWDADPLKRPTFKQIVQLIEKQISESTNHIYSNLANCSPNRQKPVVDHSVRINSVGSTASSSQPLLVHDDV

[14] = Oral bioavailability in Balb/C mouse at 10 mg/kg measured upto 48 hrs by LC-MS/MS analysis; format: ADME, organism-based; settings: in vivo

What does the source list for `Cc1ccc(-c2cn([C@H]3CC[C@@H](N)CC3)c3ncnc(N)c23)c(F)c1`?
Vd [1]: 333.24 L/kg; clearance [2]: 166 mL/min/kg; IC50 [3]: 89 nM; half-life [4]: 3.62 h; Vd [5]: 43.9 L/kg; Kd [6]: 2300 nM; half-life at 1 µM [7]: > 2 h; inhibition (RAW264.7): Active; IC50 [8]: 4780 nM; AUC(0-t) at 48 h [9]: 1000 ng·h/mL; IC50 [10]: 56 nM; concentration at 0.5 h [11]: 3620 ng/g; IC50 [12]: 0.3 nM; IC50 [13]: 1510 nM; bioavailability [14]: 15.1%
